Assay results reported in article PMC4641156, “Evaluation of a Novel Tc-99m Labelled Vitamin B12 Derivative for Targeting Escherichia coli and Staphylococcus aureus In Vitro and in an Experimental Foreign-Body Infection Model” (Molecular Imaging and Biology, 2015).

Legend:
[1] = Biodistribution after i.v. injection in tissue cage mouse model (organs, tissues, cages overall)
Method: (§1) C57Bl/6 mice from in-house breeding or purchased from Charles River Laboratories GmbH (Sulzfeld, Germany) were housed in the Animal Facility of the Department of Biomedicine, University Hospital, Basel, Switzerland. Experiments were performed in accordance to the regulations of Swiss veterinary law. The Institutional Animal Care and Use Committee approved the study protocol. Drinking water and standard laboratory food pellets (CR) were provided ad libitum. To reduce interference of high vitamin B12 level in mice, animals randomized for Cbl biodistribution studies were fed with a vitamin B12-reduced diet (Provimi Kliba AG, Kaiseraugst, Switzerland) beginning at the age of 10 weeks. At the age of 12 weeks, one sterile polytetrafluoroethylene (Teflon) tube (32 × 10 mm), perforated by 130 regularly spaced holes of 1 mm diameter, was aseptically implanted into the back of each mouse, as previously described. Each cage was weighted and numbered before implantation. Two weeks after surgery, clips were removed from healed wounds, and sterility of the cage was confirmed by culture of aspirated cage fluid. On the following day, 5 × 10^5 CFU of E. coli or 5 × 10^6 CFU of S. aureus, resuspended in 200 μl of 0.9 % saline, were injected into cages. Sterile 0.9 % saline was injected in cages in animals used as negative controls.
The two different experimental set-up of biodistribution were adapted to the known radiopharmaceutical binding/non-binding to plasma protein, persistence in organs and tissues and half-life of the labelling radioisotope.
(§2) Accumulation of radiopharmaceuticals in cage fluids was measured by resuspending 100 μl of aspirated fluid in 1 ml PBS and counted in a gamma counter. The percentage of injected dose (% IDTCF/ml) was calculated as measured CPM normalized per 1 ml cage fluid and divided by the CPM0 (injected dose). For determination of radiopharmaceutical biodistribution, mice were sacrificed with an intraperitoneal injection of 50–80 μl saline solution of pentothal (100 mg/ml). Blood was collected by cardiac puncture, and mice were perfused with 0.9 % saline for around 5 min. Following, tissues were dissected, weighted and collected into test tubes for γ-counter (blood, heart, liver, spleen, stomach, kidneys, lungs, intestine, muscle, bone and cage). The percentage of injected dose (% IDtissue/g) was calculated as CPM associated to each organ divided by its weight in grams and by the CPM0.

[2] = Distribution into sterile (non-infected) tissue cages and cage fluids; details: for Cage—sterile, mean % ID/g tissue ± SD: explanted sterile cage
Method: as §1, §2

E. coli-infected cages = assay: Distribution into E. coli-infected tissue cages and cage fluids; details: for Cage—E. coli, mean % ID/g tissue ± SD: explanted E. coli-infected cage
Method: (§3) For in vivo studies, overnight cultures were prepared in 5 ml tryptic soy broth (TSB), incubated at 37 °C for 18–20 h. Bacterial suspensions were then washed three times, resuspended in 5 ml of sterile 0.9 % saline and diluted.
as §1, §2

S. aureus-infected cages = assay: Distribution into S. aureus-infected tissue cages and cage fluids; details: for Cage—S. aureus, mean % ID/g tissue ± SD: explanted S. aureus-infected cage
Method: as §3, §1, §2

[3] = tested on: S. aureus (ATCC 35556, methicillin susceptible); assay: In vitro binding of radiotracers to S. aureus (kinetics and competition with unlabeled Cbl); assay type: cell-based, Staphylococcus aureus
Method: Laboratory strains E. coli (ATCC 25922) and S. aureus (ATCC 35556, methicillin susceptible) were used. Bacteria were stored at −70 °C using a cryovial bead preservation system (Microbank, Pro-Lab Diagnostics, Richmond Hill, ON, Canada). Single cryovial beads were cultured overnight on Columbia sheep blood agar plates (Becton Dickinson, Heidelberg, Germany). For in vitro binding studies, overnight cultures were prepared in snap-lid tubes from 2 to 3 CFU in 5 ml of a synthetic minimal medium depleted of vitamin B12. After 18–20 h of incubation at 37 °C and 200 rpm, the cultures were diluted 1:100 in the same medium and further incubated at 37 °C to mid-logarithmic phase in sealed tubes. […] Five hundred microlitres of resuspended cultures were transferred to Eppendorf tubes and used for the measurement of binding to viable bacteria at 37 °C. For testing binding at 4 °C, bacterial suspension in PBS were let to equilibrate for 1 h at 4 °C before adding the radiopharmaceuticals. […] The bacterial suspensions were then centrifuged, resuspended in PBS and used for further studies. […] Colony counts remained <10 CFU/ml. Five hundred microlitres of each radiopharmaceutical solution was added to the 500 μl of bacterial suspensions. Binding assays were performed in quadruplicate vials per testing conditions. Afterwards, vials were centrifuged for 5 min at 13,500 rpm and 4 °C, and pellets were washed with 500 μl of cooled PBS. Supernatants and resuspended pellets were counted in a multi-well NaI γ-counter (Cobra; Packard, USA) and the counts per minute (CPM) recorded. The percentage of radiolabeled Cbl in the pellets was calculated as the percentage of the CPMp/CPM0 ratio per log10 8.0 CFU/ml, where CPMp were the CPM associated to pellets and CPM0 were the total CPM of the radiolabeled Cbl added per vial.

[4] = tested on: transcobalamin II (TC II); design: method as in PMID 12831983, PMID 18413759; details: cited from earlier work
E. coli (ATCC 25922) = assay: In vitro binding of radiotracers to E. coli (kinetics and competition with unlabeled Cbl); assay type: cell-based, Escherichia coli
Method: Laboratory strains E. coli (ATCC 25922) and S. aureus (ATCC 35556, methicillin susceptible) were used. Bacteria were stored at −70 °C using a cryovial bead preservation system (Microbank, Pro-Lab Diagnostics, Richmond Hill, ON, Canada). Single cryovial beads were cultured overnight on Columbia sheep blood agar plates (Becton Dickinson, Heidelberg, Germany). For in vitro binding studies, overnight cultures were prepared in snap-lid tubes from 2 to 3 CFU in 5 ml of a synthetic minimal medium depleted of vitamin B12. After 18–20 h of incubation at 37 °C and 200 rpm, the cultures were diluted 1:100 in the same medium and further incubated at 37 °C to mid-logarithmic phase in sealed tubes. […] Five hundred microlitres of resuspended cultures were transferred to Eppendorf tubes and used for the measurement of binding to viable bacteria at 37 °C. For testing binding at 4 °C, bacterial suspension in PBS were let to equilibrate for 1 h at 4 °C before adding the radiopharmaceuticals. […] Supernatants and resuspended pellets were counted in a multi-well NaI γ-counter (Cobra; Packard, USA) and the counts per minute (CPM) recorded. The percentage of radiolabeled Cbl in the pellets was calculated as the percentage of the CPMp/CPM0 ratio per log10 8.0 CFU/ml, where CPMp were the CPM associated to pellets and CPM0 were the total CPM of the radiolabeled Cbl added per vial.

[5] = cage fluid, vs sterile controls

## O=C([O-])CC(O)(CC(=O)[O-])C(=O)[O-].[67Ga+3] [[^67Ga]citrate, Gallium-67 citrate]
[1]; 72 h after i.v. injection
  Blood, mean % ID/g tissue ± SD: 0.46 ± 0.20 % ID/g tissue
  Bone, mean % ID/g tissue ± SD: 10.99 ± 2.40 % ID/g tissue
  Heart, mean % ID/g tissue ± SD: 1.26 ± 0.10 % ID/g tissue
  Intestine, mean % ID/g tissue ± SD: 2.00 ± 0.40 % ID/g tissue
  Kidneys, mean % ID/g tissue ± SD: 10.73 ± 1.30 % ID/g tissue
  Liver, mean % ID/g tissue ± SD: 7.44 ± 0.90 % ID/g tissue
  Lungs, mean % ID/g tissue ± SD: 2.11 ± 0.30 % ID/g tissue
  Muscle, mean % ID/g tissue ± SD: 0.69 ± 0.20 % ID/g tissue
  Spleen, mean % ID/g tissue ± SD: 6.09 ± 0.70 % ID/g tissue
  Stomach, mean % ID/g tissue ± SD: 3.73 ± 1.50 % ID/g tissue
[1]; cage fluids
  Time to peak values in cages: ≤ 12 h
[2]; 72 h p.i.
  Cage fluid/blood ratio, control (non-infected) mice: 1.14 ± 0.21
[2]; 72 h after i.v. injection
  Cage—sterile, mean % ID/g tissue ± SD: 1.45 ± 0.50 % ID/g tissue
E. coli-infected cages; 72 h p.i.
  Cage fluid/blood ratio, mice infected with E. coli: 5.41 ± 0.52
E. coli-infected cages; 72 h after i.v. injection
  Cage—E. coli, mean % ID/g tissue ± SD: 3.99 ± 1.10 % ID/g tissue
S. aureus-infected cages; 72 h p.i.
  Cage fluid/blood ratio, mice infected with S. aureus: 3.56 ± 0.87
S. aureus-infected cages; 72 h after i.v. injection
  Cage—S. aureus, mean % ID/g tissue ± SD: 9.45 ± 2.30 % ID/g tissue

## O=C([O-])CN(CCN(CC(=O)[O-])CC(=O)[O-])CCN(CC(=O)[O-])CC(=O)[O-].[99Tc+4] [[^99mTc]DTPA]
[1]; 30 min after i.v. injection
  Blood, mean % ID/g tissue ± SD: 1.46 ± 1.10 % ID/g tissue
  Bone, mean % ID/g tissue ± SD: 0.47 ± 0.30 % ID/g tissue
  Intestine, mean % ID/g tissue ± SD: 0.90 ± 0.50 % ID/g tissue
  Kidneys, mean % ID/g tissue ± SD: 3.92 ± 0.80 % ID/g tissue
  Liver, mean % ID/g tissue ± SD: 0.33 ± 0.20 % ID/g tissue
  Lungs, mean % ID/g tissue ± SD: 0.40 ± 0.20 % ID/g tissue
  Muscle, mean % ID/g tissue ± SD: 0.34 ± 0.30 % ID/g tissue
  Spleen, mean % ID/g tissue ± SD: 0.19 ± 0.00 % ID/g tissue
  Stomach, mean % ID/g tissue ± SD: 1.67 ± 1.70 % ID/g tissue
[1]; 4 h after i.v. injection
  Blood, mean % ID/g tissue ± SD: 0.02 ± 0.10 % ID/g tissue
  Bone, mean % ID/g tissue ± SD: 0.05 ± 1.50 % ID/g tissue
  Heart, mean % ID/g tissue ± SD: 0.05 ± 0.00 % ID/g tissue
  Intestine, mean % ID/g tissue ± SD: 0.66 ± 0.20 % ID/g tissue
  Kidneys, mean % ID/g tissue ± SD: 0.93 ± 0.80 % ID/g tissue
  Liver, mean % ID/g tissue ± SD: 0.09 ± 0.00 % ID/g tissue
  Lungs, mean % ID/g tissue ± SD: 0.06 ± 0.10 % ID/g tissue
  Muscle, mean % ID/g tissue ± SD: 0.06 ± 1.10 % ID/g tissue
  Spleen, mean % ID/g tissue ± SD: 0.06 ± 0.00 % ID/g tissue
  Stomach, mean % ID/g tissue ± SD: 0.05 ± 1.10 % ID/g tissue
[1]; 24 h after i.v. injection
  Blood, mean % ID/g tissue ± SD: 0.01 ± 0.00 % ID/g tissue
  Bone, mean % ID/g tissue ± SD: 0.01 ± 0.00 % ID/g tissue
  Heart, mean % ID/g tissue ± SD: 0.01 ± 0.00 % ID/g tissue
  Intestine, mean % ID/g tissue ± SD: 0.02 ± 0.00 % ID/g tissue
  Kidneys, mean % ID/g tissue ± SD: 0.15 ± 0.00 % ID/g tissue
  Liver, mean % ID/g tissue ± SD: 0.02 ± 0.00 % ID/g tissue
  Lungs, mean % ID/g tissue ± SD: 0.01 ± 0.00 % ID/g tissue
  Muscle, mean % ID/g tissue ± SD: 0.00 ± 0.00 % ID/g tissue
  Spleen, mean % ID/g tissue ± SD: 0.02 ± 0.00 % ID/g tissue
  Stomach, mean % ID/g tissue ± SD: 0.02 ± 0.00 % ID/g tissue
[2]; 30 min after i.v. injection
  Cage—sterile, mean % ID/g tissue ± SD: 2.88 ± 0.50 % ID/g tissue
[2]; 4 h after i.v. injection
  Cage—sterile, mean % ID/g tissue ± SD: 0.34 ± 0.40 % ID/g tissue
[2]; 24 h after i.v. injection
  Cage—sterile, mean % ID/g tissue ± SD: 0.01 ± 0.00 % ID/g tissue
E. coli-infected cages; 4 h after i.v. injection
  Cage—E. coli, mean % ID/g tissue ± SD: 0.91 ± 0.15 % ID/g tissue
E. coli-infected cages; 24 h after i.v. injection
  Cage—E. coli, mean % ID/g tissue ± SD: 0.15 ± 0.10 % ID/g tissue
S. aureus-infected cages; 4 h after i.v. injection
  Cage—S. aureus, mean % ID/g tissue ± SD: 0.40 ± 0.10 % ID/g tissue
S. aureus-infected cages; 24 h after i.v. injection
  Cage—S. aureus, mean % ID/g tissue ± SD: 0.05 ± 0.10 % ID/g tissue

## [^99mTc]PAMA(4)-cyanocobalamin [[^99mTc]PAMA(4)-Cbl]
[3]; ethanol-killed and/or heat-killed bacteria
  Binding to killed S. aureus: no binding
[3]; relative to [57Co]Cbl
  In vitro binding to S. aureus, fold lower than [57Co]Cbl: 3 fold
[2]; 24 h p.i.
  Cage fluid/blood ratio, non-infected mice: 1.53 ± 0.30
E. coli-infected cages; [5]
  Time p.i. at which cage fluid retention was significantly higher in E. coli-infected than control mice: 8 h
S. aureus-infected cages; [5]
  Time p.i. at which cage fluid % IDTCF/ml was significantly higher in S. aureus-infected than control mice: 4 h
[4]
  Binding to the major Cbl transport protein TC II: abolished binding

## cyanocobalamin [unlabeled Cbl]
E. coli (ATCC 25922); 4 °C and ethanol-killed bacteria
  Cold Cbl excess sufficient to reduce maximal [57Co]Cbl binding to E. coli to 50 %: 10 fold
E. coli (ATCC 25922); 37 °C, viable bacteria, 1 h simultaneous incubation
  Concentration of unlabeled Cbl required to show inhibition of [57Co]Cbl binding to E. coli: 1000 fold
[3]; S. aureus, 3 h
  Excess of unlabeled Cbl that decreased [99mTc]PAMA(4)-Cbl binding to S. aureus: 1 fold
[3]; both 37 and 4 °C, 3 h
  Excess of unlabeled Cbl that reduced [57Co]Cbl binding to S. aureus: 10 fold
